The record followed here is patent US7638554B2, “Flavanoids as chemotherapeutic, chemopreventive, and antiangiogenic agents” (SRI International, priority 2002, dated 2009).

Read-outs that look alike come from different tables or passages of the source.

The test system of test [1] is MCF-7 (ER+) breast cancer cell line. As to the kind of experiment: Growth inhibition assay, MTT, MCF-7 breast cancer cells. Format: cell-based, human. The following applies: MTT assay, eight days, average of at least two experiments, read-out: GROWTH INHIBITION (IC50) MCF-7 (ER+). The procedure: (§1) Compounds of the invention were tested for their ability to inhibit growth in two breast cancer cell lines, MCF-7 (ER+) and MDA-MB-231 (ER−).
(§2) The growth inhibition assays were conducted using routine methods. Briefly, the cells were seeded in 24-well plates at a density of 2000 cells per well in 200 μL of […] growth medium. To each well was added 10 μL of DMSO containing the dissolved test compound; final DMSO concentration in each well was not more than 0.5%. Each test compound was assayed at concentrations of 0.4, 2, 10, and 50 μM. The plates were incubated for eight days, with the media and test solutions replaced every third day. On Day 8, the viable cells were measured by the MTT assay, as described in Mosmann et al. (1983), “Rapid Colorimetric Assay for Cellular Growth and Survival: Application to Proliferation and Cytotoxicity,” J. Immunol. Method. 65:55-63. The optical density at 575 nm of each test well was measured and compared to that for control wells, and the data used to calculate the percentage of growth inhibition at different concentrations. The IC50 value (the concentration of growth inhibitor that results in 50% growth inhibition of the cells in culture relative to control cells not exposed to any growth inhibitor) was determined by plotting dose-response curves.
(§3) The calculated IC50 values are set forth in Table 1, with the results representing the average of at least two experiments conducted for each compound at each of the four concentrations.

Test [2] deals with MDA-MB-231 (ER−) breast cancer cell line. Description: Growth inhibition assay, MTT, MDA-MB-231 breast cancer cells. It counts as cell-based, human. The following applies: eight days, average of at least two experiments. As for the experimental part: as §1, §2, §3
The test system of test [3] is chick chorioallantoic membrane (CAM) blood vessels. As to the kind of experiment: Chick chorioallantoic membrane (CAM) assay for antiangiogenic activity. Format: in vivo. The following applies: 11.1 μg/CAM, once daily for 12-14 days. The procedure: The CAM assay, which is widely applied to evaluate in vivo antiangiogenic activity, was utilized with SR 13179.
The methods used were those of Folkman (Auerbach et al. (1974) Dev. Biol. 41:391-394), with some modifications. The test compound was dissolved in saline and methylcellulose, and the embryos dosed once daily for 12-14 days. Blood vessel density of each embryo was measured as the quantitative endpoint. The known antiangiogenic compound medroxyprogesterone acetate (MPA) was used as a positive control.

Test [4] deals with prostate cancer cell line LNCaP. As to the kind of experiment: Growth inhibition, sulforhodamine-based protein determination, LNCaP. The following applies: Homo sapiens, Table 5, read-out: Growth Inhibition (IC50), LNCaP cells. It counts as cell-based. As for the experimental part:
The novel compound SR 13179 was assayed for its ability to inhibit growth in several cancer cell lines. The cell lines studied included breast cancer cell line MCF-7 (ER+); prostate cancer cell lines LNCaP, PC3, and DU145; lung cancer cell line A427; ovarian cancer cell lines IGROV1, OVCAR-3, OVCAR-4, OVCAR-5, OVCAR-8, and SK-OV-3; and colon cancer cell lines COLO 205, HCC-2998, HCT-116, HCT-15, HT29, KM12, AND SW-620.
The growth assays for the breast cancer cell lines were conducted according to the method of Example 16. For the other cell lines, each assay was conducted with continuous exposure to the test compound at four log concentrations for six days, using a sulforhodamine-based protein determination to measure growth inhibition.
The procedure of Example 20 was used to evaluate the growth inhibitory effect of various compounds of the invention on LNCaP cells.

Setting [5] is: Homo sapiens, MDA-MB-231, 192 h.

Turning to “3-(3,4,5-Trimethoxyphenyl)-2,3-dihydro-benzo[F]chromen-1-one [SR 13182]”, the IC50 in test [1] and in test [2] was greater than 50 µM each time.

In the case of `CC(=O)O[C@]1(C(C)=O)CC[C@H]2[C@@H]3C[C@H](C)C4=CC(=O)CC[C@]4(C)[C@H]3CC[C@@]21C` [MPA, medroxyprogesterone acetate, reference compound], in test [3], the “Blood vessel density score” value turned out to be 4.5 ± 2.3 and the “Percent inhibition relative to control” value was found to be 58%.

Take `COc1cc(/C=C/C(=O)c2ccc3ccccc3c2O)cc(OC)c1OC` [SR 13176, 1-(1-Hydroxy-naphthalen-2-yl)-3-(3,4,5-trimethoxyphenyl)-propenone]: the IC50 in test [1] (Homo sapiens, MCF7, 192 h) was greater than 50 µM; in test [2] (setting [5]), 39 µM.

Consider `COc1cc(C2CC(=O)c3ccc4ccccc4c3O2)cc(OC)c1OC` (centres unmarked) [SR 13177, 2-(3,4,5-TRIMETHOXYPHENYL)-2,3-DIHYDRO-BENZO[H]CHROMEN-4-ONE], for which the IC50 in test [1] (Homo sapiens, MCF7, 192 h) is 4.65 µM; in test [4], 2.52 µM.

As for `O=C(C=Cc1cc(OCc2ccccc2)c(OCc2ccccc2)c(OCc2ccccc2)c1)c1c(O)cc(OCc2ccccc2)cc1OCc1ccccc1` [SR 13178, 1-(2,4-Bis-benzyloxy-6-hydroxyphenyl)-3-(3,4,5-tris-benzyloxy-phenyl)-propenone], the IC50 in test [1] was 53 µM; in test [2], greater than 100 µM.

Turning to `O=C1CC(c2cc(OCc3ccccc3)c(OCc3ccccc3)c(OCc3ccccc3)c2)Oc2cc(OCc3ccccc3)cc(OCc3ccccc3)c21` (centres unmarked) [SR 13180, 5,7-BIS-BENZYLOXY-2-(3,4,5-TRIS-BENZYLOXY-PHENYL)-CHROMAN-4-ONE], the concentration for half-maximal inhibition (IC50) was greater than 50 µM in test [1] (Homo sapiens, MCF7, 192 h) and greater than 50 µM in test [2] (setting [5]).

Take `COc1cc(C2CC(=O)c3c(ccc4ccccc34)O2)cc(OC)c1OC` (centres unmarked) [SR 13181, 3′,4′,5′-TRIMETHOXY-B-NAPHTHAFLAVAN-4-ONE]: the IC50 in test [1] and in test [2] was greater than 100 µM each time.

Turning to `OC1CC(c2cc(OCc3ccccc3)c(OCc3ccccc3)c(OCc3ccccc3)c2)Oc2cc(OCc3ccccc3)cc(OCc3ccccc3)c21` (centres unmarked) [SR 13183, 5,7-BIS-BENZYLOXY-2-(3,4,5-TRIS-BENZYLOXY-PHENYL)-CHROMAN-4-OL], the IC50 was greater than 100 µM in test [1] (Homo sapiens, MCF7, 192 h) and 13.6 µM in test [2] (setting [5]).

For the compound `O=C(/C=C/c1cc(OCc2ccccc2)c(OCc2ccccc2)c(OCc2ccccc2)c1)c1ccc2ccccc2c1O` [SR 13185, 1-(1-HYDROXY-NAPHTHALEN-2-YL)-3-(3,4,5-TRIS-BENZYLOXY-PHENYL)-PROPENONE], the IC50 was 5.08 µM in test [1] (Homo sapiens, MCF7, 192 h) and 0.562 µM in test [2] (setting [5]).

`O=C1CC(c2cc(OCc3ccccc3)c(OCc3ccccc3)c(OCc3ccccc3)c2)Oc2c1ccc1ccccc21` (centres unmarked) [SR 13186, 2-(3,4,5-TRIS-BENZYLOXY-PHENYL)-2,3-DIHYDRO-BENZO[H]CHROMEN-4-ONE]: the IC50 in test [1] (Homo sapiens, MCF7, 192 h) amounted to 7.32 µM; in test [2] (setting [5]) it was 9.84 µM.

Turning to `COc1cc(C2CC(O)c3c(ccc4ccccc34)O2)cc(OC)c1OC` (centres unmarked) [SR 13187, 3-(3,4,5-TRIMETHOXYPHENYL)-2,3-DIHYDRO-1H-BENZO[F]CHROMEN-1-OL], the IC50 in test [1] (Homo sapiens, MCF7, 192 h) worked out at 6.29 µM; in test [4], 17.7 µM.

Take `COc1ccc(C2CC(=O)c3c(OC)cc(OC)cc3O2)cc1` (centres unmarked) [SR 13188, 5,7-DIMETHOXY-2-(4-METHOXY-PHENYL)-CHROMAN-4-ONE]: the IC50 in test [1] (Homo sapiens, MCF7, 192 h) is greater than 50 µM; in test [4], 3.34 µM; in test [2] (setting [5]), greater than 50 µM.

On to `COc1ccc(C2CC(O)c3c(OC)cc(OC)cc3O2)cc1` (centres unmarked) [SR 13189, 5,7-DIMETHOXY-2-(4-METHOXY-PHENYL)-CHROMAN-4-OL], for which the IC50 in test [1] (Homo sapiens, MCF7, 192 h) was greater than 50 µM; in test [2] (setting [5]), greater than 50 µM.

Consider `OC1CC(c2cc(OCc3ccccc3)c(OCc3ccccc3)c(OCc3ccccc3)c2)Oc2c1ccc1ccccc21` (centres unmarked) [SR 13191, 2-(3,4,5-TRIS-BENZYLOXY-PHENYL)-3,4-DIHYDRO-2H-BENZO[H]CHROMEN-4-OL], for which the IC50 is 19.9 µM in test [1] (Homo sapiens, MCF7, 192 h); 6.58 µM in test [4]; greater than 50 µM in test [2] (setting [5]).

For the compound `COc1cc([C@@H]2CC(O)c3cc4c(cc3O2)CCCC4)cc(OC)c1OC` (some centres unmarked) [SR 13817, 5-(4-hydroxy-3,4,6,7,8,9-hexahydro-2H-benzo[g]chromen-2-yl)benzene-1,2,3-trimethoxy], the IC50 came out at 0.56 µM in test [1] and 1.51 µM in test [2].
